Reference: patent publication US8067459B2, “Lapachone compounds and methods of use thereof” (ArQule, Inc., priority 2007, dated 2011)
Read-outs that look alike come from different tables or passages of the source.

What was measured:
[1] = system: A549 human lung carcinoma cells; assay: MTS cell viability assay, A549 lung carcinoma cells; type: cell-based; conditions: read-out: IC50 Values, Cancerous Cells, Lung A549
Description: (§1) Cell viability was determined by measuring the activity of dehydrogenase enzymes in metabolically active cells using a tetrazolium compound, MTS. The assay was performed as described in Promega Technical Bulletin No. 169 (CellTiter 96 Aqueous Non-Radioactive Cell Proliferation Assay): All cells lines were grown in DMEM media (4.5 g/L glucose) supplemented with 15% heat-inactivated FBS, 10 mM L-glutamine, and 10 mM HEPES. Briefly, cells were seeded in 96-well plates and incubated for 16 to 24 hours; test compounds were serially diluted in DMSO, further diluted in cell culture media, then added to cells (final DMSO concentration of 0.33% v/v); cells were incubated in the presence of compound for 4 hours; MTS was added to the cells and incubated for four hours; SDS was added to a final concentration of 1.4% v/v and absorbance at 490 nm was measured within two hours using a plate reader. The amount of […] absorbance was directly proportional to the number of living cells in the culture.
(§2) The assays of the present invention as shown in Table 1 and methods of measuring induction of E2F1 activity and elevation of E2F1 levels can be carried out following the descriptions found in Li et al., (2003) Proc Natl Acad Sci USA. 100(5): 2674-8 and U.S. Patent Application Publication No. 2002/0169135, both incorporated herein by reference.

[2] = system: DLD-1 human colon carcinoma cells; assay: MTS cell viability assay, DLD-1 colon carcinoma cells; type: cell-based; conditions: read-out: IC50 Values, Cancerous Cells, Colon DLD-1
Description: as §1, §2

[3] = system: DU-145 human prostate carcinoma cells; assay: MTS cell viability assay, DU-145 prostate carcinoma cells; type: cell-based; conditions: read-out: IC50 Values, Cancerous Cells, Prostate DU-145
Description: as §1, §2

[4] = system: K-562 human leukemia cells; assay: MTS cell viability assay, K-562 leukemia cells; type: cell-based; conditions: read-out: IC50 Values, Cancerous Cells, Leukemia K-562
Description: as §1, §2

[5] = system: PACA-2 human pancreatic carcinoma cells; assay: MTS cell viability assay, PACA-2 pancreatic carcinoma cells; type: cell-based; conditions: read-out: IC50 Values, Cancerous Cells, Pancreas PACA-2
Description: as §1, §2

[6] = system: NCM-460 normal colon epithelial cells; assay: MTS cell viability assay, NCM-460 normal colon cells; type: cell-based; conditions: for IC50: Homo sapiens, read-out: IC50 Values, Normal Cells, Colon NCM-460; for Fold Selectivity (NCM-460/DLD1): ratio of IC50 NCM-460 to IC50 DLD-1
Description: Since β-lapachone induces cell death only in cancer cell lines and not in normal cells (Li et al., (2003) Proc Natl Acad Sci USA. 100(5): 2674-8), the present compounds were also tested in a panel of normal cell lines from a variety of tissues including NCM-460 normal colon epithelial cells.
as §1, §2

human cancer cell lines = conditions: single agent; typical range; read-out: antineoplastic activity against human cancer cell lines (IC50); cited from earlier work
[7] = system: normal fresh or proliferating human PBMC; conditions: cited from earlier work
E2F1 checkpoint pathway = conditions: earlier studies with β-lapachone; cited from earlier work
[8] = A549, 4 hours with compound, MTS
[9] = DLD-1, 4 hours with compound, MTS
[10] = DU-145, 4 hours with compound, MTS
[11] = K562, K-562, 4 hours with compound, MTS
[12] = PACA-2, 4 hours with compound, MTS
[13] = NCM460, NCM-460, 4 hours with compound, MTS

| Structure (SMILES) | IC50 [1, 8] | IC50 [2, 9] | IC50 [3, 10] | IC50 [4, 11] | IC50 [5, 12] | IC50 [6, 13] | Fold Selectivity (NCM-460/DLD1) [6] | further results |
| --- | --- | --- | --- | --- | --- | --- | --- | --- |
| O=C1C(=O)c2ccccc2C2=C1SCC(CN1CCC3(CC1)OCCO3)O2 (stereo not shown) [Compound 9, 2-(1,4-dioxa-8-azaspiro[4.5]dec-8-ylmethyl)-2,3-dihydronaphtho[1,2-b][1,4]oxathiine-5,6-dione] |  |  |  |  |  |  |  | melting point: 202 to 204 °C |
| CC1CSC2=C(O1)c1cc(N3CCCCC3)ccc1C(=O)C2=O (stereo not shown) [Compound 15, 2-methyl-9-piperidin-1-yl-2,3-dihydronaphtho[1,2-b][1,4]oxathiine-5,6-dione] | > 100 µM | 32.8 µM | > 100 µM | 58.2 µM | 32.4 µM | 33.6 µM | 1.0 |  |
| O=C1C(=O)c2ccccc2C2=C1SCC(CNCCc1ccccc1)O2 (stereo not shown) [Compound 6, 2-{[(2-phenylethyl)amino]methyl}-2,3-dihydronaphtho[1,2-b][1,4]oxathiine-5,6-dione] | 12.9 µM | 4.01 µM | 4.67 µM | 5.29 µM | 3.78 µM | 17.1 µM | 4.3 |  |
| CCOC(=O)N1CCN(CC2CSC3=C(O2)c2ccccc2C(=O)C3=O)CC1 (stereo not shown) [Compound 1, ethyl 4-[(5,6-dioxo-2,3,5,6-tetrahydronaphtho[1,2-b][1,4]oxathiin-2-yl)methyl]piperazine-1-carboxylate] | 4.77 µM | 1.84 µM | 4.01 µM | 2.93 µM | 1.95 µM | 4.78 µM | 2.6 |  |
| CC1(C)CCC2=C(O1)c1ccccc1C(=O)C2=O [β-lapachone, 3,4-dihydro-2,2-dimethyl-2H-naphtho[1,2-b]pyran-5,6-dione] |  |  |  |  |  |  |  | IC50 (human cancer cell lines): 1 to 10 µM; cytotoxic effects on normal human PBMC [7]: No cytotoxic effects; activation of E2F1 checkpoint pathway in nuclei of cancer cells but not in normal cells (E2F1 checkpoint pathway): induces activation of E2F1 checkpoint pathway |
| O=C1C(=O)c2ccccc2C2=C1SCC(CN1CCC(O)CC1)O2 (stereo not shown) [Compound 3, 2-[(4-hydroxypiperidin-1-yl)methyl]-2,3-dihydronaphtho[1,2-b][1,4]oxathiine-5,6-dione] |  |  |  |  |  |  |  | melting point: 98 to 100 °C |
| O=C1C(=O)c2ccccc2C2=C1SCC(CN1CCN(c3ccc(F)cc3)CC1)O2 (stereo not shown) [Compound 5, -{[4-(4-fluorophenyl)piperazin-1-yl]methyl}-2,3-dihydronaphtho[1,2-b][1,4]oxathiine-5,6-dione] | 4.79 µM | 1.57 µM | 1.49 µM | 2.68 µM | 1.34 µM | 9.83 µM | 6.3 |  |
| COC(=O)C1(C)CSC2=C(O1)c1ccccc1C(=O)C2=O (stereo not shown) |  |  |  |  |  |  |  | melting point: 188 to 189 °C |
| O=C1C(=O)c2ccccc2C2=C1SCC(CNCc1ccccc1)O2 (stereo not shown) [Compound 7, 2-[(benzylamino)methyl]-2,3-dihydronaphtho[1,2-b][1,4]oxathiine-5,6-dione] | 11.3 µM | 2.95 µM | 4.22 µM | 3.89 µM | 2.75 µM | 11.4 µM | 3.9 |  |
| O=C1C(=O)c2ccccc2C2=C1SCC(CN1CCC(CO)CC1)O2 (stereo not shown) [Compound 2, 2-{[4-(hydroxymethyl)piperidin-1-yl]methyl}-2,3-dihydronaphtho[1,2-b][1,4]oxathiine-5,6-dione] | 11.7 µM | 2.05 µM | 3.88 µM | 2.84 µM | 1.64 µM | 10.8 µM | 5.3 |  |
| CC1CSC2=C(O1)c1cc(-c3ccccc3)ccc1C(=O)C2=O (stereo not shown) [Compound 14, 2-methyl-9-phenyl-2,3-dihydronaphtho[1,2-b][1,4]oxathiine-5,6-dione] | > 100 µM | 3.8 µM | 3.79 µM | 4.61 µM | 3.39 µM | 10.1 µM | 2.7 |  |
| COC(CN(C)CC1CSC2=C(O1)c1ccccc1C(=O)C2=O)OC (stereo not shown) [Compound 4, 2-{[(2,2-dimethoxyethyl)(methyl)amino]methyl}-2,3-dihydronaphtho[1,2-b][1,4]oxathiine-5,6-dione] |  |  |  |  |  |  |  | melting point: 80 to 82 °C |
| O=C1C(=O)c2ccccc2C2=C1SCC(COc1cccnc1)O2 (stereo not shown) [Compound 17, 2-[(pyridin-3-yloxy)methyl]-2,3-dihydronaphtho[1,2-b][1,4]oxathiine-5,6-dione] | 5.08 µM | 2.39 µM | 3.82 µM | 2.89 µM | 2.04 µM | 5.61 µM | 2.3 |  |
| O=C(Nc1ccccc1)OCC1CSC2=C(O1)c1ccccc1C(=O)C2=O (stereo not shown) [Compound 11, (5,6-dioxo-2,3,5,6-tetrahydronaphtho[1,2-b][1,4]oxathiin-2-yl)methyl phenylcarbamate] | 5.44 µM | 1.36 µM | 4.05 µM | 2.73 µM | 2.05 µM | 7.65 µM | 5.6 |  |
| CC(C)NC(=O)CN1CCN(CC2CSC3=C(O2)c2ccccc2C(=O)C3=O)CC1 (stereo not shown) [Compound 8, 2-{4-[(5,6-dioxo-2,3,5,6-tetrahydronaphtho[1,2-b][1,4]oxathiin-2-yl)methyl]piperazin-1-yl}-N-isopropylacetamide] |  |  |  |  |  |  |  | melting point: 85 to 87 °C |
| CCCC1CCOC2=C(S1)C(=O)C(=O)c1ccccc12 (stereo not shown) [Compound 13, 4-propyl-3,4-dihydro-2H-naphtho[1,2-b][1,4]oxathiepine-6,7-dione] |  |  |  |  |  |  | 1.4 | IC50 ([1]; A549, 4 h): > 100 µM; IC50 ([2]; DLD-1, 4 h): 12.9 µM; IC50 ([3]; DU-145, 4 h): 13.2 µM; IC50 ([4]; K562, 4 h): 10.9 µM; IC50 ([5]; PaCa-2, 4 h): 12.1 µM; IC50 ([6]; NCM460, 4 h): 18.6 µM |
| CC(C)NC(=O)OCC1CSC2=C(O1)c1ccccc1C(=O)C2=O (stereo not shown) [Compound 12, (5,6-dioxo-2,3,5,6-tetrahydronaphtho[1,2-b][1,4]oxathiin-2-yl)methyl isopropylcarbamate] | 4.66 µM | 2.17 µM | 3.72 µM | 1.51 µM | 1.68 µM | 5.92 µM | 2.7 |  |
